Columns and labels:
barnyardgrass [1] = test: Test B pre-/postemergence herbicide test; assay type: in vivo, Echinochloa crus-galli; details: for Barnyardgrass plant response rating: Postemergence, scale 0 (no effect) to 100 (complete control)
Procedure, shortened: (§1)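 Evaluation is visual, comparing treated with control plants on a scale where 0 means no effect and 100 means full control. Treatments were preemergence, or postemergence on seedlings 2–18 cm tall, and held 13–15 days in the greenhouse.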

Surinam grass = test: Test B pre-/postemergence herbicide test; assay type: in vivo, Urochloa decumbens
Procedure, shortened: (§2)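 Pre: seeds sown, then sprayed. Post: 1–4-leaf plants (2–18 cm) sprayed at the same time. Paddy: flooded, treated at 2-leaf stage. Formulation: non-phytotoxic solvent with surfactant. Greenhouse 13–15 days; visual 0–100 score relative to controls.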

cocklebur = test: Test B pre-/postemergence herbicide test; assay type: in vivo, Xanthium strumarium
Procedure, shortened: as §1

corn = test: Test B pre-/postemergence herbicide test; assay type: in vivo, Zea mays
Procedure, shortened: as §2

large crabgrass = test: Test B pre-/postemergence herbicide test; assay type: in vivo, Digitaria sanguinalis
Procedure, shortened: as §2

giant foxtail = test: Test B pre-/postemergence herbicide test; assay type: in vivo, Setaria faberi
Procedure, shortened: as §2

lambsquarters = test: Test B pre-/postemergence herbicide test; assay type: in vivo, Chenopodium album
Procedure, shortened: as §2

morningglory = test: Test B pre-/postemergence herbicide test; assay type: in vivo, Ipomoea coccinea
Procedure, shortened: as §1

pigweed = test: Test B pre-/postemergence herbicide test; assay type: in vivo, Amaranthus retroflexus
Procedure, shortened: as §2

velvetleaf = test: Test B pre-/postemergence herbicide test; assay type: in vivo, Abutilon theophrasti
Procedure, shortened: as §2

blackgrass [2] = test: Test B postemergence herbicide test; assay type: in vivo, Alopecurus myosuroides
Procedure, shortened: (§3)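 Each value is a visual 0–100 response rating taken against controls 13 to 15 days after treatment in the greenhouse. Plants received formulated chemical postemergence at the 1- to 4-leaf stage or, in flooded paddy, at the 2-leaf stage.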

wheat [3] = test: Test B postemergence herbicide test; assay type: in vivo, Triticum aestivum; design: key to Wheat plant response rating: 0 = no effect, 100 = complete control
Procedure, shortened: (§4)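 Read-out: visual comparison with controls, scored 0 to 100, where 100 means complete control and 0 no effect. Formulated chemicals were applied postemergence to plants 2–18 cm tall (1- to 4-leaf), or to flooded-paddy plants at the 2-leaf stage, then held 13 to 15 days under glass.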

wild oat [4] = test: Test B postemergence herbicide test; assay type: in vivo, Avena fatua
Procedure, shortened: as §4

rice = test: Test B flooded paddy test; assay type: in vivo, Oryza sativa; details: 1000 g ai/ha, scale 0 to 100 (0 no effect, 100 complete control)
Procedure, shortened: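 Plants grow to 1- to 4-leaf stage (2–18 cm) for postemergence spraying, or to 2-leaf stage for the paddy test. Formulated compound is applied. Greenhouse holding lasts 13–15 days. Response is scored visually relative to controls, 0 no effect to 100 complete control; a dash means no result.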

[5] = tested on: small flower umbrella sedge; test: Test B flooded paddy test; assay type: in vivo, Cyperus difformis; details: 1000 g ai/ha, scale 0 to 100 (0 no effect, 100 complete control)
Procedure, shortened: as §3

ducksalad = test: Test B flooded paddy test; assay type: in vivo, Heteranthera limosa; details: 1000 g ai/ha, scale 0 to 100 (0 no effect, 100 complete control)
Procedure, shortened: as §3

barnyardgrass [6] = test: Test B flooded paddy test; assay type: in vivo, Echinochloa crus-galli; details: 1000 g ai/ha, scale 0 to 100 (0 no effect, 100 complete control)
Procedure, shortened: as §3

winter barley = test: Test C postemergence herbicide test; assay type: in vivo, Hordeum vulgare
Procedure, shortened: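 After a postemergence application at 1 to 4 leaves (plants 2–18 cm high), or at 2 leaves for barnyardgrass in flooded paddy, plants stayed in the greenhouse for 12 to 14 days. Damage was then judged visually relative to control plants, with 100 indicating complete control.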

blackgrass [7] = test: Test C postemergence herbicide test; assay type: in vivo, Alopecurus myosuroides
Procedure, shortened: (§5)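 Postemergence sprays were applied to plants 2 to 18 cm tall (1- to 4-leaf stage); in the flooded paddy test, barnyardgrass was grown to the 2-leaf stage. After 12 to 14 days in a greenhouse, injury was visually rated against untreated controls on a 0–100 scale (100 = complete control).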

canarygrass = test: Test C postemergence herbicide test; assay type: in vivo, Phalaris minor
Procedure, shortened: as §5

downy bromegrass = test: Test C postemergence herbicide test; assay type: in vivo, Bromus tectorum
Procedure, shortened: as §5

green foxtail = test: Test C postemergence herbicide test; assay type: in vivo, Setaria viridis
Procedure, shortened: as §5

Italian ryegrass = test: Test C postemergence herbicide test; assay type: in vivo, Lolium multiflorum; details: postemergence, scale 0 to 100
Procedure, shortened: as §5

wheat [8] = test: Test C postemergence herbicide test; assay type: in vivo, Triticum aestivum; details: postemergence, scale 0 to 100
Procedure, shortened: as §5

wild oat [9] = test: Test C postemergence herbicide test; assay type: in vivo, Avenafatua; details: postemergence, scale 0 to 100
Procedure, shortened: as §5

windgrass = test: Test C postemergence herbicide test; assay type: in vivo, Apera spica-venti; details: postemergence, scale 0 to 100
Procedure, shortened: as §5

[10] = 125 g ai/ha, 0 is no effect, 100 is complete control, preemergence
[11] = Postemergence, 500 g ai/ha, scale 0 (no effect) to 100 (complete control)
[12] = postemergence, 125 g ai/ha, scale 0 to 100
[13] = Postemergence, 250 g ai/ha, scale 0 to 100, 0 no effect, 100 complete control
[14] = postemergence, 31 g ai/ha, scale 0 to 100
[15] = postemergence, 62 g ai/ha, scale 0 to 100

C=CCNC(=O)c1ccc(F)c(NC(=O)c2cc(C(C)(C)C)nn2CC)c1 [Compound 430]
Plant response rating (0 to 100 scale), Barnyardgrass (barnyardgrass [1]; [10]): 90
Barnyardgrass plant response rating (barnyardgrass [1]; 125 g ai/ha): 30
Barnyardgrass plant response rating (barnyardgrass [1]; 500 g ai/ha): 50
Plant response rating (0 to 100 scale), Surinam Grass (Surinam grass; [10]): 80
Surinam Grass plant response rating (Surinam grass; [11]): 40
Surinam Grass plant response rating (Surinam grass; [12]): 30
Plant response rating (0 to 100 scale), Cocklebur (cocklebur; [10]): 10
Cocklebur plant response rating (cocklebur; [11]): 90
Cocklebur plant response rating (cocklebur; [12]): 60
Plant response rating (0 to 100 scale), Corn (corn; [10]): 50
Corn plant response rating (corn; [11]): 40
Corn plant response rating (corn; [12]): 20
Plant response rating (0 to 100 scale), Crabgrass, Large (large crabgrass; [10]): 100
Crabgrass, Large plant response rating (large crabgrass; [11]): 50
Crabgrass, Large plant response rating (large crabgrass; [12]): 30
Plant response rating (0 to 100 scale), Foxtail, Giant (giant foxtail; [10]): 90
Foxtail, Giant plant response rating (giant foxtail; [11]): 40
Foxtail, Giant plant response rating (giant foxtail; [12]): 30
Plant response rating (0 to 100 scale), Lambsquarters (lambsquarters; [10]): 100
Lambsquarters plant response rating (lambsquarters; [11]): 80
Lambsquarters plant response rating (lambsquarters; [12]): 60
Plant response rating (0 to 100 scale), Morningglory (morningglory; [10]): 20
Morningglory plant response rating (morningglory; [11]): 70
Morningglory plant response rating (morningglory; [12]): 60
Plant response rating (0 to 100 scale), Pigweed (pigweed; [10]): 100
Pigweed plant response rating (pigweed; [11]): 80
Pigweed plant response rating (pigweed; [12]): 60
Plant response rating (0 to 100 scale), Velvetleaf (velvetleaf; [10]): 40
Velvetleaf plant response rating (velvetleaf; [11]): 80
Velvetleaf plant response rating (velvetleaf; [12]): 60
Blackgrass plant response rating (blackgrass [2]; [11]): 70
Blackgrass plant response rating (blackgrass [2]; [12]): 40
Wheat plant response rating (wheat [3]; 500 g ai/ha, scale 0 to 100, 0 no effect, 100 complete control, preemergence): 100
Wheat plant response rating (wheat [3]; [11]): 40
Wheat plant response rating (wheat [3]; [12]): 30
Oat, Wild plant response rating (wild oat [4]; [11]): 50
Oat, Wild plant response rating (wild oat [4]; [12]): 40
Rice plant response rating (rice): 60
Sedge, Umbrella plant response rating [5]: 80
Ducksalad plant response rating (ducksalad): 80
Barnyardgrass plant response rating (barnyardgrass [6]): 80
Plant response rating, Barley, Winter (winter barley; Postemergence, 125 g ai/ha, scale 0 to 100, 0 no effect, 100 complete control): 35
Plant response rating, Barley, Winter (winter barley; [13]): 45
Plant response rating, Barley, Winter (winter barley; [14]): 25
Plant response rating, Barley, Winter (winter barley; postemergence, 62 g ai/ha, scale 0 to 100 (0 no effect, 100 complete control)): 30
Plant response rating, Blackgrass (blackgrass [7]; [13]): 65
Plant response rating, Blackgrass (blackgrass [7]; [12]): 55
Plant response rating, Blackgrass (blackgrass [7]; [14]): 45
Plant response rating, Blackgrass (blackgrass [7]; [15]): 50
Plant response rating, Canarygrass (canarygrass; [13]): 60
Plant response rating, Canarygrass (canarygrass; [12]): 50
Plant response rating, Canarygrass (canarygrass; [14]): 30
Plant response rating, Canarygrass (canarygrass; [15]): 40
Plant response rating, Bromegrass, Downy (downy bromegrass; [13]): 55
Plant response rating, Bromegrass, Downy (downy bromegrass; [12]): 50
Plant response rating, Bromegrass, Downy (downy bromegrass; [14]): 45
Plant response rating, Bromegrass, Downy (downy bromegrass; [15]): 45
Plant response rating, Foxtail, Green (green foxtail; [13]): 60
Plant response rating, Foxtail, Green (green foxtail; [12]): 50
Plant response rating, Foxtail, Green (green foxtail; [15]): 45
Plant response rating, Ryegrass, Italian (Italian ryegrass; 125 g ai/ha): 60
Plant response rating, Ryegrass, Italian (Italian ryegrass; 62 g ai/ha): 55
Plant response rating, Wheat (wheat [8]; 125 g ai/ha): 50
Plant response rating, Wheat (wheat [8]; 62 g ai/ha): 45
Plant response rating, Oat, Wild (wild oat [9]; 125 g ai/ha): 60
Plant response rating, Oat, Wild (wild oat [9]; 62 g ai/ha): 55
Plant response rating, Windgrass (windgrass; 125 g ai/ha): 45
Plant response rating, Windgrass (windgrass; 62 g ai/ha): 35

Source: US20060069132A1, “Azolecarboxamide herbicides” (priority 2004, published 2006)
